Reference: patent publication US8324177B2, “Triterpene compositions and methods for use thereof” (Research Development Foundation, priority 1998, dated 2012)

Tested on: poly (ADP-ribose) polymerase (PARP) cleavage in Jurkat cells
Assay: Immunoblot analysis of PARP degradation
Format: cell-based, human
Conditions: 100 μM, 1 h pretreatment
Experimental: Apoptosis induced by F035 & D1 was examined by proteolytic cleavage of poly (ADP-ribose) polymerase (PARP). Jurkat cells (2×10^6/ml) were treated with F035 (2 μg/ml) and D1 (2 μg/ml) for different lengths of time. Cell lysates were prepared in buffer containing 20 mM HEPES, 250 mM NaCl, 2 mM EDTA, 0.1% NP-40, 2 μg/ml leupeptin, 2 μg/ml aprotinin, 0.5 μg/ml benzamidine, 1 mM DTT and 1 mM PMSF. Cellular proteins (60 μg/ml) were separated on a 7.5% SDS polyacrylamide gel and electrotransferred onto a nitrocellulose membrane. The membrane was probed first with monclonal anti-PARP antibody (PharMingen) and then with anti-mouse antibody conjugated to horse radish peroxidase (HRPO). Protein bands were detected by chemiluminescense (ECL, Amersham). The extent of cleavage of the 116-kDa PARP into 85-kDa and 41-kDa peptide products was used as a measure of apoptosis (Tewari et al., 1995).

z-vad fmk
Effect on F035 induced cleavage of PARP (in words): completely reversed
